One experiment concerns MDA-MB-231 tumour. Description: MDA-MB-231 tumour growth in mice. It counts as in vivo. The conditions noted are these: 35 mg/kg/d (35 mg/kg/d for 3 days then 17.5 mg/kg/d for 3 days then none); 5 mice per group; FIG. 1. The procedure:
The effect of 35 mg/kg/d CA4-P, compound entry 8, compound entry 9, compound entry 10 and compound entry 23 (administered at 35 mg/kg/d for 3 days then 17.5 mg/kg/d for 3 days then none) on MDA-MB-231 tumour growth is summarised in FIG. 1.
The effect of CA4-P and test compounds and saline on MDA-MB-231 tumour growth. Each group consisted of 5 mice. The data represent the mean tumour volume; bars SEM.

Experiment [1] relates to Human umbilical vein endothelial cells. Description: Proliferation Assay - activated endothelium (MTT). The conditions noted are these: HUVEC, range within which the IC50 value falls, 48 hrs culture, read-out: Inhib activated HUVECs IC50. It counts as cell-based. The procedure:
Proliferation Assay—activated endothelium: Human umbilical vein endothelial cells (CC-2519, Clonetics) were plated at 2500 cells/well in EGM2 (CC-3162, Clonetics) in a 96 well plate in triplicate. Cells were cultured overnight at 37° C. 5% CO2. Medium was subsequently replaced with fresh medium including the compound or negative control. Cells were cultured for a period of 48 hrs. An MTT assay was performed to measure changes in cell numbers. Briefly, 20 μl of MTT reagent was added to cells containing 100 μl of EGM2 and incubated at 37° C. for 2 hours. Absorbance was measured at 492 nm.

In a further experiment the test system is Tubulin. Description: Inhibition of tubulin polymerisation. Type of experiment: biochemical. The conditions noted are these: tubulin concentration 10 μM; extent of assembly after 20 min incubation at 30° C.; read-out: Inhib. Tubulin polymerisation IC50.
The test system of a further experiment is MCF-7, cancer cell line. Description: MCF-7 growth inhibition (SRB or Sysmex cell counting). Type of experiment: cell-based. The following applies: SRB or CC assay.
Another experiment deals with MDA-MB-231. Description: MDA-MB-231 growth inhibition (footnote b). It counts as cell-based. The following applies: Homo sapiens; entries 59-60: cell line MDA-MB-231; range within which the IC50 value falls; read-out: cancer cell line IC50 (MDA-MB-231).
Where [2] appears, read: Homo sapiens, MCF7, concentration required to inhibit net cell growth by 50%.
The mark [3] stands for this setting: concentration required to inhibit net cell growth by 50%.

On to `COc1ccc(/C=C\c2cc(OC)c(OC)c(OC)c2)cc1OP(=O)([O-])[O-].[Na+].[Na+]` [CA4-P, combretastatin A4 disodium phosphate, reference compound], for which, in the experiment with MDA-MB-231 tumour, the “effect on MDA-MB-231 tumour growth” value is listed as “effectively inhibited”.
Consider `COc1cc(C(=O)c2c(-c3cnn(C)c3)oc3c(O)c(OC)ccc23)cc(OC)c1OC` [Entry 14, 2-(4-N-Methylpyrazolyl)-3-(3,4,5-trimethoxybenzoyl)-6-methoxy-7-hydroxy-benzofuran], for which the half-maximal inhibitory concentration (IC50) (commonly the concentration at which inhibition is half-maximal) in experiment [1] is 0.1 to 1 nM; in the experiment with Tubulin, 1300 ± 70 nM.
With `COc1ccc(-c2oc3c(O)c(OC)ccc3c2C(=O)c2cc(OC)c(OC)c(OC)c2)cc1O` [Entry 5, reference compound], the IC50 with MCF-7, cancer cell line (setting [2]) was 3.9 nM; with MCF-7, cancer cell line (setting [3]) it was 4.1 nM; with Tubulin, less than 4000 nM.
Consider `COc1cc(C(=O)c2c(-c3cnn(C)c3)oc3c(OP(=O)([O-])[O-])c(OC)ccc23)cc(OC)c1OC.[Na+].[Na+]` [Entry 23, 2-(4-N-methylpyrazolyl)-3-(3,4,5-trimethoxybenzoyl)-6-methoxy-7-O-disodiumphosphate-benzofuran], for which the “effect on MDA-MB-231 tumour growth” value with MDA-MB-231 tumour is “effectively inhibited”.
In the case of `COc1cc(C(=O)c2c(-c3nccs3)oc3c(O)c(OC)ccc23)cc(OC)c1OC` [Entry 44, 7-Hydroxy-2-(2-thiazolyl)-3-(3,4,5-trimethoxybenzoyl)-6-methoxy-benzo[b]furan], the IC50 in experiment [1] is 0.1 to 1 nM; with MCF-7, cancer cell line (setting [2]), 0.37 nM; in the experiment with MCF-7, cancer cell line (setting [3]), 0.32 nM; in the experiment with Tubulin, 2200 ± 400 nM.
As for `COc1ccc2c(C(=O)c3cc(OC)c(OC)c(OC)c3)coc2c1` [Entry 6, reference compound], the IC50 with MCF-7, cancer cell line (setting [2]) came to 60 nM; in the experiment on MCF-7, cancer cell line (setting [3]), 50 nM; with Tubulin, 1600 ± 200 nM.
Regarding `COc1cc(C(=O)c2coc3c(O)c(OC)ccc23)cc(OC)c1OC` [Entry 7, reference compound], the IC50 was 10 to 100 nM in experiment [1]; 62 nM in the experiment with MCF-7, cancer cell line (setting [2]); 31 nM with MCF-7, cancer cell line (setting [3]).
For `COc1cc(C(=O)c2c(-c3nn[nH]n3)oc3c(O)c(OC)ccc23)cc(OC)c1OC` [Entry 57, 7-Hydoxy-6-methoxy-2-(2H-tetrazol-5-yl)-3-(3,4,5-trimethoxybenzoyl)-benzo[b]furan], the IC50 in experiment [1] lay within 10 to 100 nM; with MCF-7, cancer cell line (setting [2]), 10 to 100 nM.
Turning to `COc1cc(C(=O)c2c(-c3cnn(C)c3)oc3c2ccc2ocnc23)cc(OC)c1OC` [Entry 33], the IC50 in experiment [1] was 100 to 1000 nM; in the experiment with MCF-7, cancer cell line (setting [2]), 540 nM; in the experiment with MCF-7, cancer cell line (setting [3]), 600 nM.
For `COc1ccc2c(C(=O)c3cc(OC)c(OC)c(OC)c3)c(-c3ccco3)oc2c1` [Entry 52, 2-(2-Furyl)-6-methoxy-3-(3,4,5-trimethoxybenzoyl)benzo[b]furan], the IC50 was 1 to 10 nM in experiment [1]; 6.9 nM in the experiment on MCF-7, cancer cell line (setting [2]); 7.9 nM in the experiment on MCF-7, cancer cell line (setting [3]).
Consider `COc1ccc2c(C(=O)c3cc(OC)c(OC)c(OC)c3)c(-c3ccc(OC)nc3)oc2c1` [Entry 11, 2-(6-Methoxy-pyridin-3-yl)-3-(3,4,5-trimethoxybenzoyl)-6-methoxy-benzofuran], for which the IC50 in experiment [1] was 10 to 100 nM; in the experiment with MCF-7, cancer cell line (setting [2]), 70 nM; in the experiment on MCF-7, cancer cell line (setting [3]) it was 72 nM; in the experiment on Tubulin, less than 4000 nM.
Take `COc1cc(C(=O)c2c(-c3cn[nH]c3)oc3c(O)c(OC)ccc23)cc(OC)c1OC` [Entry 16, [7-Hydroxy-6-methoxy-2-(1H-pyrazol-4-yl)-benzofuran-3-yl]-(3,4,5-trimethoxyphenyl)-methanone]: the concentration for half-maximal inhibition (IC50) in experiment [1] was 1 to 10 nM; in the experiment on MCF-7, cancer cell line (setting [2]), 3 nM; with MCF-7, cancer cell line (setting [3]), 3.4 nM.
On to `COc1ccc2c(C(=O)c3cc(OC)c(OC)c(OC)c3)c(N3CCN(C)CC3)oc2c1` [Entry 46, 2-(4-N-Methylpiperazino)-3-(3,4,5-trimethoxybenzoyl)-6-methoxy-benzo[b]furan], for which the IC50 in experiment [1] was 100 to 1000 nM; in the experiment with MCF-7, cancer cell line (setting [2]), 200 nM; in the experiment on MCF-7, cancer cell line (setting [3]) it was 230 nM.
Turning to `COc1cc(C(=O)c2c(-n3cncn3)oc3c(O)c(OC)ccc23)cc(OC)c1OC` [Entry 43, 2-(1,2,4-triazol-1-yl)-7-hydroxy-3-(3,4,5-trimethoxybenzoyl)-6-methoxy-benzo[b]furan], the half-inhibitory concentration (IC50) in experiment [1] is 0.1 to 1 nM; in the experiment on MCF-7, cancer cell line (setting [2]) it was 0.37 nM; in the experiment on MCF-7, cancer cell line (setting [3]), 0.32 nM.
Regarding `COc1cc(C(=O)c2c(-c3ccco3)oc3c(O)c(OC)ccc23)cc(OC)c1OC` [Entry 36, 2-(2-furanyl)-7-hydroxy-6-methoxy-3-(3,4,5-trimethoxybenzoyl)benzo[b]furan], the figures for the IC50 (in experiment [1]; in the experiment on Tubulin) were 1 to 10 nM and 8700 ± 800 nM, respectively.
Turning to `COc1ccc2c(C(=O)c3cc(OC)c(OC)c(OC)c3)c(-c3ccsc3)oc2c1` [Entry 18, 2-(3-Thiophenyl)-3-(3,4,5-trimethoxybenzoyl)-6-methoxy-benzo[b]furan], the 50% inhibitory concentration (IC50) in experiment [1] is 10 to 100 nM; with MCF-7, cancer cell line (setting [2]) it was 17 nM; in the experiment on MCF-7, cancer cell line (setting [3]), 22 nM.
Turning to `COc1cc(C(=O)c2c(-c3cncn3C)oc3c(O)c(OC)ccc23)cc(OC)c1OC` [Entry 59, 7-Hydroxy-6-methoxy-2-(3-methyl-3H-imidazol-4-yl)-3-(3,4,5-trimethoxybenzoyl)-benzo[b]furan], the concentration for half-maximal inhibition (IC50) (in experiment [1]; in the experiment with MDA-MB-231) was 1 to 10 nM each time.
Regarding `COc1ccc2c(C(=O)c3cc(OC)c(OC)c(OC)c3)c(-c3cnn(CC(N)=O)c3)oc2c1` [Entry 31, 2-{4-[6-Methoxy-3-(3,4,5-trimethoxy-benzoyl)-benzo[b]furan-2-yl]-pyrazol-1-yl}-acetamide], the IC50 in experiment [1] was 1 to 10 nM; with MCF-7, cancer cell line (setting [2]), 3.8 nM; with MCF-7, cancer cell line (setting [3]) it was 4 nM.
Consider `COc1cc(C(=O)c2c(-c3cnn(C)c3)oc3c(N)c(OC)ccc23)cc(OC)c1OC` [Entry 21, 7-Amino-6-methoxy-2-(1-methyl-1H-pyrazol-4-yl)-3-(3,4,5-trimethoxybenzoyl)benzo[b]furan], for which the IC50 is 1 to 10 nM in experiment [1]; less than 1 nM with MCF-7, cancer cell line (setting [2]); 1.2 nM in the experiment with MCF-7, cancer cell line (setting [3]); 1500 ± 100 nM with Tubulin.
In the case of `COc1ccc(-c2oc3c(O)c(OC)ccc3c2C(=O)c2cc(OC)c(OC)c(OC)c2)cc1` [Entry 4, reference compound], the half-inhibitory concentration (IC50) with MCF-7, cancer cell line (setting [2]) was 1 to 2 nM; in the experiment on Tubulin, 1500 ± 400 nM.
Regarding `COc1ccc(-n2cc(-c3oc4cc(OC)ccc4c3C(=O)c3cc(OC)c(OC)c(OC)c3)cn2)cc1` [Entry 40, {6-Methoxy-2-[1-(4-methoxy-phenyl)-1H-pyrazol-4-yl]-benzofuran-3-yl}-(3,4,5-trimethoxyphenyl)-methanone], the IC50 in experiment [1] is 100 to 1000 nM; in the experiment with MCF-7, cancer cell line (setting [2]) it was 360 nM; in the experiment on MCF-7, cancer cell line (setting [3]) it was 350 nM.
As to `COc1ccc2c(C(=O)c3cc(OC)c(OC)c(OC)c3)c(-c3c[nH]cn3)oc2c1` [Entry 45, [2-(1H-Imidazol-4-yl)-6-methoxy-benzofuran-3-yl]-(3,4,5-trimethoxyphenyl)-methanone], the IC50 in experiment [1] was 1 to 10 nM; in the experiment on MCF-7, cancer cell line (setting [2]), 4.5 nM; in the experiment on MCF-7, cancer cell line (setting [3]), 5.7 nM.
Taken in the same sequence, the figures for `COc1cc(C(=O)c2c(-c3cnn(C)c3)oc3c([N+](=O)[O-])c(OC)ccc23)cc(OC)c1OC` [Entry 20, [6-Methoxy-7-nitro-2-(1-methyl-1H-pyrazol-4-yl)-benzofuran-3-yl]-(3,4,5-trimethoxyphenyl)-methanone] were 10 to 100 nM, 33 nM and 40 nM.
Consider `COc1ccc2c(C(=O)c3cc(OC)c(OC)c(OC)c3)c(-c3cnn(C)c3)oc2c1` [Entry 12, 6-Methoxy-2-(1-methyl-1H-pyrazol-4-yl)-3-(3,4,5-trimethoxybenzoyl)benzo[b]furan], for which the IC50 in experiment [1] is 1 to 10 nM; in the experiment with MCF-7, cancer cell line (setting [2]), 3.9 nM; with MCF-7, cancer cell line (setting [3]) it was 4 nM; in the experiment with Tubulin, 1200 ± 40 nM.

For the origin of these results see US8278290B2, “Tubulin polymerisation inhibitors” (Biononics Limited, priority 2005, dated 2012).
